Data on eight compounds can be found in patent US8242274B2, “Triazolopyridine kinase inhibitors useful for the treatment of degenerative and inflammatory diseases” (Galapagos NV, priority 2008, dated 2012).

Each structure is given as a SMILES string.

Series [1] in a line: Microsomal stability, rat. The class given is in vitro ADME. As to conditions: rat liver microsomes, 3 μM compound, 37° C. The protocol: A 10 mM stock solution of compound in DMSO was diluted 1000 fold in a 182 mM phosphate buffer pH 7.4 in a 96 deep well plate (Greiner, Cat no. 780285) and pre-incubated at 37° C.
40 μL of deionised water was added to a well of a polypropylene Matrix 2D barcode labelled storage tube (Thermo Scientific) and pre-incubated at 37° C.
A Glucose-6-phosphate-dehydrogenase (G6PDH) working stock solution was prepared in 182 mM phosphate buffer pH7.4 and placed on ice before use. A co-factor containing MgCl2, glucose-6-phosphate and NADP+ was prepared in deionised water and placed on ice before use.
A final working solution containing liver microsomes (Xenotech) of a species of interest (human, mouse, rat, dog), previously described G6PDH and co-factors was prepared and this mix was incubated for no longer than 20 minutes at room temperature.
30 μL of the pre-heated compound dilution was added to 40 μL of pre-heated water in the Matrix tubes and 30 μL of the microsomal mix was added. Final reaction concentrations were 3 μM compound, 1 mg microsomes, 0.4 U/mL GDPDH, 3.3 mM MgCl2, 3.3 mM glucose-6-phosphate and 1.3 mM NADP+.
To measure percentage remaining of compound at time zero MeOH or ACN was added (1:1) to the well before adding the microsomal mix. The plates were sealed with Matrix Sepra Seals™ (Matrix, Cat. No. 4464) and shaken for a few seconds ensure complete mixing of all components.
The samples which were not stopped are incubated at 37° C., 300 rpm and after 1 hour of incubation the reaction was stopped with MeOH or ACN (1:1).
After stopping the reaction the samples were mixed and placed on ice for 30 min to precipitate the proteins. The plates were then centrifuged 30 min at 1200 rcf at 4° C. and the supernatant was transferred to a 96 v-bottom PP plate (Greiner, 651201) for analysis on LCMS.
These plates were sealed with sealing mats (MA96RD-04S) of www.kinesis.co.uk and samples were measured at room temperature on LCMS (ZQ 1525 from Waters) under optimized conditions using Quanoptimize to determine the appropriate mass of the parent molecule.
The samples were analyzed on LCMS with a flow rate of 1 mL/min. Solvent A was 15 mM ammonia and solvent B was methanol or acetonitrile, depending on the stop solution used. The samples were run under positive ion spray on an XBridge C18 […] (2.1×30 mm) column, from Waters.
Peak area from the parent compound at time 0 was considered to be 100% remaining. The percentage remaining after 1 hour incubation was calculated from time 0 and was calculated as the percentage remaining. The solubility of the compound in the final test concentration in buffer is inspected by microscope and results are reported.
The data on microsomal stability are expressed as a percentage of the total amount of compound remaining after 60 minutes.

The target in series [2] is T1, Recombinant human TYK2 catalytic domain (Homo sapiens, UniProt P29597).
T1 construct: Recombinant human TYK2 catalytic domain (amino acids 871-1187; catalog number 08-147); purchased Carna biosciences 08-147
T1 sequence (P29597 871-1187): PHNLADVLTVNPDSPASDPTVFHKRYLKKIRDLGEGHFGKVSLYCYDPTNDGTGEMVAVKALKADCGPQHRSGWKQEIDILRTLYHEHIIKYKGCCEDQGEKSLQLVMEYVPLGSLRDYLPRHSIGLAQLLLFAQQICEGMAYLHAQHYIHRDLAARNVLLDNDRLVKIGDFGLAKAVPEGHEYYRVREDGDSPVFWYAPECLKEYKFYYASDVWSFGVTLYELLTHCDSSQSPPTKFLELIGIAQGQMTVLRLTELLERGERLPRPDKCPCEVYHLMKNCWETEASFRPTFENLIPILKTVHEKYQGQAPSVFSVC
As to the kind of experiment: TYK2 inhibition assay. It counts as biochemical. As to conditions: semi-quantitative score. The protocol:
Recombinant human TYK2 catalytic domain (amino acids 871-1187; catalog number 08-147) was purchased from Carna biosciences. 5 ng of TYK2 was incubated with 12.5 μg polyGT substrate (Sigma catalog number P0275) in kinase reaction buffer (25 mM Hepes pH 7.5, 100 mM NaCl, 0.2 mM Na3VO4, 0.1% NP-40, 0.1 μM non-radioactive ATP, 0.125 μCi 33P-gamma-ATP (GE Healthcare, catalog number AH9968) final concentrations) with or without 5 μL containing test compound or vehicle (DMSO, 1% final concentration), in a total volume of 25 μL, in a polypropylene 96-well plate (Greiner, V-bottom). After 90 min at 30° C., reactions were stopped by adding of 25 μL/well of 150 mM phosphoric acid. All of the terminated kinase reaction was transferred to prewashed (75 mM phosphoric acid) 96 well filter plates (Perkin Elmer catalog number 6005177) using a cell harvester (Perkin Elmer). Plates were washed 6 times with 300 μL per well of a 75 mM phosphoric acid solution and the bottom of the plates was sealed. 40 μL/well of Microscint-20 was added, the top of the plates was sealed and readout was performed using the Topcount (Perkin Elmer). Kinase activity was calculated by subtracting counts per minute (cpm) obtained in the presence of a positive control inhibitor (10 μM staurosporine) from cpm obtained in the presence of vehicle. The ability of a test compound to inhibit this activity was determined as: Percentage inhibition=((cpm determined for sample with test compound present−cpm determined for sample with positive control inhibitor) divided by (cpm determined in the presence of vehicle−cpm determined for sample with positive control inhibitor))*100%.
Dose dilution series were prepared for the compounds enabling the testing of dose-response effects in the TYK2 assay and the calculation of the IC50 for each compound. Each compound was routinely tested at concentration of 20 μM followed by a 1/3 serial dilution, 8 points (20 μM-6.67 μM-2.22 μM-740 nM-247 nM-82 nM-27 nM-9 nM) in a final concentration of 1% DMSO.

Turning to `O=C(Nc1nc2cccc(-c3ccc(NCc4ccccc4)cc3)n2n1)C1CC1` [Compound 72, N-(5-(4-(benzylamino)phenyl)-[1,2,4]triazolo[1,5-a]pyridin-2-yl)cyclopropanecarboxamide], the “Microsomal stability Rat (%), compound remaining after 60 minutes” value in series [1] stood at 2.2%. The half-maximal inhibitory concentration (IC50) in series [2] was more than 1000 nM.

As for `CC(=O)Nc1ccc(COc2ccc(-c3cccc4nc(NC(=O)C5CC5)nn34)cc2)cc1` [Compound 92, N-(5-(4-(4-acetamidobenzyloxy)phenyl)-[1,2,4]triazolo[1,5-a]pyridin-2-yl)cyclopropanecarboxamide], in series [1], the “Microsomal stability Rat (%), compound remaining after 60 minutes” value came to 23.6%. Also, in series [2], the IC50 is more than 1000 nM.

Turning to `O=C(Nc1nc2cccc(-c3ccc(OCc4ccccn4)cc3)n2n1)C1CC1` [Compound 37, N-(5-(4-(pyridin-2-ylmethoxy)phenyl)-[1,2,4]triazolo[1,5-a]pyridin-2-yl)cyclopropanecarboxamide], in series [1], the “Microsomal stability Rat (%), compound remaining after 60 minutes” value turned out to be 79.47%. For the same compound, the IC50 in series [2] was in the range of 501 to 1000 nM.

With `O=C(Nc1nc2cccc(-c3ccc(OCc4cccnc4)cc3)n2n1)C1CC1` [Compound 36, N-(5-(4-(pyridin-3-ylmethoxy)phenyl)-[1,2,4]triazolo[1,5-a]pyridin-2-yl)cyclopropanecarboxamide], in series [1], the “Microsomal stability Rat (%), compound remaining after 60 minutes” value worked out at 72.41%. Moreover, in series [2], the IC50 was 101 to 500 nM.

As to `O=C(Nc1nc2cccc(-c3ccc(OCc4ccccc4)cc3)n2n1)C1CC1` [Compound 12, N-(5-(4-(benzyloxy)phenyl)-[1,2,4]triazolo[1,5-a]pyridin-2-yl)cyclopropanecarboxamide], the “Microsomal stability Rat (%), compound remaining after 60 minutes” value in series [1] is listed as 94%.

Consider `N#Cc1ccc(COc2ccc(-c3cccc4nc(NC(=O)C5CC5)nn34)cc2)cn1` [Compound 176, N-(5-(4-((6-cyanopyridin-3-yl)methoxy)phenyl)-[1,2,4]triazolo[1,5-a]pyridin-2-yl)cyclopropanecarboxamide], for which the “Microsomal stability Rat (%), compound remaining after 60 minutes” value in series [1] stood at 90.21%. In addition, the IC50 in series [2] is 1 to 100 nM.

For `O=C(Nc1nc2cccc(-c3ccc(OCc4ccc(C(F)(F)F)nc4)cc3)n2n1)C1CC1` [Compound 78, N-(5-(4-((6-(trifluoromethyl)pyridin-3-yl)methoxy)phenyl)-[1,2,4]triazolo[1,5-a]pyridin-2-yl)cyclopropanecarboxamide], the “Microsomal stability Rat (%), compound remaining after 60 minutes” value in series [1] was found to be 93.85%.

For the compound `O=C(Nc1nc2cccc(-c3ccc(OCc4ccccc4)nc3)n2n1)C1CC1` [Compound 57, Cyclopropanecarboxylic acid [5-(6-benzyloxy-pyridin-3-yl)-[1,2,4]triazolo[1,5-a]pyridin-2-yl]-amide], the “Microsomal stability Rat (%), compound remaining after 60 minutes” value in series [1] is 34.5%.
